From US8765746B2 (Millennium Pharmaceuticals, Inc., priority 2010, dated 2014)

What was measured:
PI3Kalpha = biological target: T1, PI3Kalpha (Homo sapiens, UniProt P42336); assay: Human PI3Kα enzyme assay (HTRF); type: biochemical; conditions: for inhibition at 1.11 µM: read-out: PI3Kalpha % inh; for PI3Kalpha % inh: at 1.11 μM
T1 construct: His (N); host or cells: SF9 insect cells (baculovirus)
Text: (§1) The catalytic subunits of PI3Ks are cloned into either pDEST8(p110 alpha) or pDEST10(p110beta, p110delta, and p110gamma) as N-terminal His tagged fusion proteins using the Gateway system (Invitrogen, catalog#11804-010 for pDEST8 and 11806-015 for pDEST10). The sequences are verified before recombinant protein expression using the Baculovirus Expression System with Gateway® Technology. The accession numbers for the subunits are as follows:
(§2) The regulatory subunits of PI3Ks are cloned into pDEST8 as un-tagged protein using the Gateway system (Catalog#11804-010). The sequences are verified before recombinant protein expression using the Baculovirus Expression System with Gateway® Technology. The accession numbers for the subunits are as follows:
(§3) For expression of the p110 complexes, the p85 (MOI of 4) is co-infected with p110 alpha, beta, and delta respectively (1MOI) in SF9 cells and harvested at 60 hours post co-infection. P110 gamma was infected at 1 MOI and harvested at 60 hours post infection.
(§4) For purification, PI3Ks are purified by Ni-NTA Agarose (Qiagen #30250) followed by Mono Q 10/100 GL (Ge Healthcare #17-5167-01). VPS34 is purified by Glutathione Sepharose 4 Fast Flow (GE Healthcare #17-5132-03) followed by HiTrap Q (GE Healthcare #17-1153-01).
1) Human PI3Kα enzyme assay method
(§5) 0.5 uL compounds in DMSO are added to wells of a 384 well microtitre plate (Corning 3575). At room temperature: 10 ul PI3K reaction buffer (50 mM Hepes, 5 mM DTT, 150 mM NaCl, 10 mM beta-glycerophosphate, 10 mM MgCl2, 0.25 mM sodium cholate and 0.001% CHAPS, pH 7.00) containing ATP (25 uM, Promega) is added followed immediately by 10 ul PI3K reaction buffer containing di-C8 PI(4,5)P2 (3.5 uM, CellSignals) and PI3Kalpha (0.4875 nM, Millennium Protein Sciences Group) and the mixture is incubated with shaking at room temperature for 30 minutes. Then 5 ul PI3K stop mix (50 mM Hepes, 5 mM DTT, 150 mM NaCl, 0.01% Tween-20, 15 mM EDTA and 25 nM biotin-PI(3,4,5)P3 (Echelon) is added to quench the reaction followed immediately by addition of 5 ul HTRF detection mix (50 mM Hepes, 5 mM DTT, 150 mM NaCl, 0.01% Tween-20, 40 mM KF, 10 nM GST:GRP-1 PH domain (Millennium Protein Sciences Group), 15 nM Streptavidin-XL (CisBio) and 0.375 nM anti-GST Eu++ antibody (CisBio) at pH 7.00). The plates are then incubated for 1 hour at room temperature with shaking and then read on a BMG PheraStar Plus reader.

PI3Kbeta = biological target: T2, PI3Kbeta (Homo sapiens, UniProt P42338); assay: Human PI3K beta enzyme assay (HTRF, as for PI3K alpha); type: biochemical; conditions: for inhibition at 1.11 µM: read-out: PI3Kbeta % inh; for inhibition at 1.11 µM / PI3Kbeta % inh: at 1.11 μM; for IC50: read-out: IC50 (inhibit PI3Kbeta)
T2 construct: His (N); host or cells: SF9 insect cells (baculovirus)
Text: as §1, §2, §3, §4, §5
2) Human PI3K beta, delta and gamma isoforms are tested using the procedure described for PI3K alpha above but with the following changes: PI3K beta (5.25 nM), PI3K delta (0.75 nM) and PI3K gamma (5 nM). All isoforms supplied by Millennium Protein Science Group.

T2 sequence (P42338 whole entry): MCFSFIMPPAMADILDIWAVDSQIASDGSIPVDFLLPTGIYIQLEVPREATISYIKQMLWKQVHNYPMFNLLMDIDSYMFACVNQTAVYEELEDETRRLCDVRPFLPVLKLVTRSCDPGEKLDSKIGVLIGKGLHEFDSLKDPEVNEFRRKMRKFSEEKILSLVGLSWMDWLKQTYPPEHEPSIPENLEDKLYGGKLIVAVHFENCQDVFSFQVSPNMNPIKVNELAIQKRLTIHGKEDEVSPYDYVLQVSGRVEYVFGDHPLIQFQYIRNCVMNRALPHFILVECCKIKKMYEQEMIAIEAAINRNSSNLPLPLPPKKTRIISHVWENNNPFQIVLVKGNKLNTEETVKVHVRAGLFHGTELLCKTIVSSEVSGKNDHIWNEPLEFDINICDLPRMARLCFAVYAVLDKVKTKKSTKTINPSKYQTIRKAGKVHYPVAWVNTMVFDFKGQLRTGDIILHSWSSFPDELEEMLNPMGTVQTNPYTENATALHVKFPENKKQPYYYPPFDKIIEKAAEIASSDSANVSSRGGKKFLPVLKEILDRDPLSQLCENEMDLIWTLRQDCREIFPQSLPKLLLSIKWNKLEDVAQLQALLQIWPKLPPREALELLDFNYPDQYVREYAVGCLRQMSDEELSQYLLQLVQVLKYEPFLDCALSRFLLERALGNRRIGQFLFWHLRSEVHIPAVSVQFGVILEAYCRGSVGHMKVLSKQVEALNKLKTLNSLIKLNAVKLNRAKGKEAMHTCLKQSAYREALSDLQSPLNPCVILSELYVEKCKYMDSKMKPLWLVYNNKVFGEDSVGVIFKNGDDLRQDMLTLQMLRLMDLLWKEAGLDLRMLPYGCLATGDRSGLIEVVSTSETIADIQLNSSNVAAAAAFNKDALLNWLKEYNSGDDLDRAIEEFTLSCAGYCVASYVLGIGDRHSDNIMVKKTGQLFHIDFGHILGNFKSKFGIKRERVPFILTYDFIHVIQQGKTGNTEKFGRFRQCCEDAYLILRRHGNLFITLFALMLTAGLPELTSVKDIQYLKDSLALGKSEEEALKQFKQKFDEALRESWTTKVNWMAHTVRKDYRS
T2 sequence (P27986 whole entry partner): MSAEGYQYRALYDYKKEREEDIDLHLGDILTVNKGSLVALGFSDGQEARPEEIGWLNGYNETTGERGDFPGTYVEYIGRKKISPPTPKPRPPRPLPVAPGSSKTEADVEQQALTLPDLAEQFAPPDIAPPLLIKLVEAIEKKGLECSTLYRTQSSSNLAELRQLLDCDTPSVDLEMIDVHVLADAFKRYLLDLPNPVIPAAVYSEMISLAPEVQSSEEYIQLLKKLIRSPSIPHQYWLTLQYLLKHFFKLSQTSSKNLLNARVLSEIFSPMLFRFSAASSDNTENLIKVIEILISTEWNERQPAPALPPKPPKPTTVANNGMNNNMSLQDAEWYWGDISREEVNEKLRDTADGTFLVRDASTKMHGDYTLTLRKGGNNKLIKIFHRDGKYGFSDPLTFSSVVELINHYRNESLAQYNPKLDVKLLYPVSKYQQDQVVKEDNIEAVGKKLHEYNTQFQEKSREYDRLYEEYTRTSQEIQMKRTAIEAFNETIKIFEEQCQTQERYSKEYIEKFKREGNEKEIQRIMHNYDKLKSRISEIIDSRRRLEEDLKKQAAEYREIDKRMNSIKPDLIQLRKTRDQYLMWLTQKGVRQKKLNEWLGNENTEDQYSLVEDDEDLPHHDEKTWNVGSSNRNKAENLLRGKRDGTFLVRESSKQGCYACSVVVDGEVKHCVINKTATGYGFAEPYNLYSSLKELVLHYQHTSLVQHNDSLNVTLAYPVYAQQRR
T1 sequence (P42336 whole entry): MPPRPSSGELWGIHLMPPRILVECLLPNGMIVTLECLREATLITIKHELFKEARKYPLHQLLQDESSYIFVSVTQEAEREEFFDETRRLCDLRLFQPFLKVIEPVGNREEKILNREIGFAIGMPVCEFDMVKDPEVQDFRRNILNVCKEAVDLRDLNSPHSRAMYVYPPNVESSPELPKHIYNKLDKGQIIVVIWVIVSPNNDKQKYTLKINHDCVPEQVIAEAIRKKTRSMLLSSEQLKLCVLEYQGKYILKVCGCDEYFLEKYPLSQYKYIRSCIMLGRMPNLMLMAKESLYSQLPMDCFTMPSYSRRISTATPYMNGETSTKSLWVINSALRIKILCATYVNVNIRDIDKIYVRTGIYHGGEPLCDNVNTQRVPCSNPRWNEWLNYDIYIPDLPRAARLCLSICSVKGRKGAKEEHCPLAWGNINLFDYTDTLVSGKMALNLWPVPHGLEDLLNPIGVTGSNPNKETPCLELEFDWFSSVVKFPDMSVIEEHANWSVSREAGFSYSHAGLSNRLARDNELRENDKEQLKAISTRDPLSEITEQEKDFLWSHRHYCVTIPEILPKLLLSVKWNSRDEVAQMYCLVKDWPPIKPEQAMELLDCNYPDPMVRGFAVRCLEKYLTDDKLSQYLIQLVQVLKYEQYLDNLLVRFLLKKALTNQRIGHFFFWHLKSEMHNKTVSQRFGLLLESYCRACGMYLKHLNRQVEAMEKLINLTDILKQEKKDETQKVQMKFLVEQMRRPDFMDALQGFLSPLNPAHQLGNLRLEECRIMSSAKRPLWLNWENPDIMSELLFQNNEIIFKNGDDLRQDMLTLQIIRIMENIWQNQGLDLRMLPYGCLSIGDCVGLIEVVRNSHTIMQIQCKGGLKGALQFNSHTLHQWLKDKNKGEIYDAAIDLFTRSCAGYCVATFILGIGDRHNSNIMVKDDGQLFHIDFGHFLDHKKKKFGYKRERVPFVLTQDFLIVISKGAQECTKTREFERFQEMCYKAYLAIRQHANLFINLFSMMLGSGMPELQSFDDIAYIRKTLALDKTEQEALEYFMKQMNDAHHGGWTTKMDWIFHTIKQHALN
T1 sequence (P27986 whole entry partner): as the sequence (P27986 whole entry partner) above

Row | SMILES | inhibition at 1.11 µM (PI3Kalpha) | inhibition at 1.11 µM (PI3Kbeta) | PI3Kalpha % inh (PI3Kalpha) | PI3Kbeta % inh (PI3Kbeta) | IC50 (PI3Kbeta)
1 | COC(=O)[C@@H]1NC(=O)c2sc(N3CCOCC3)cc2[C@H]1c1ccc(Cl)c(Cl)c1 (relative stereo) [Compound 127, methyl rel-(4R,5R)-4-(3,4-dichlorophenyl)-2-(morpholin-4-yl)-7-oxo-4,5,6,7-tetrahydrothieno[2,3-c]pyridine-5-carboxylate] | 31.4% | 75.8% | – | – | –
2 | CNC(=O)[C@@H]1NC(=O)c2sc(-c3ccnc(C)c3)cc2[C@H]1c1ccc(Cl)cc1 (relative stereo) [Compound 138, rel-(4R,5R)-4-(4-chlorophenyl)-N-methyl-2-(2-methylpyridin-4-yl)-7-oxo-4,5,6,7-tetrahydrothieno[2,3-c]pyridine-5-carboxamide] | 7.29% | 64.6% | – | – | –
3 | O=C1N[C@@H](C(=O)O)[C@H](c2ccc(Cl)c(Cl)c2)c2cc(N3CCOCC3)sc21 (relative stereo) [Compound 142, rel-(4R,5R)-4-(3,4-dichlorophenyl)-2-(morpholin-4-yl)-7-oxo-4,5,6,7-tetrahydrothieno[2,3-c]pyridine-5-carboxylic acid] | 16.7% | 72% | – | – | –
4 | O=C1CCC(c2ccc(Cl)cc2)c2cc(-c3ccncc3)sc21 (single isomer, unassigned) [Compound 4, 4-(4-chlorophenyl)-2-pyridin-4-yl-5,6-dihydro-1-benzothiophen-7(4H)-one] | – | – | −0.100% | 14.400% | > 1000 nM
5 | O=C1NCC(c2ccc(Cl)cc2)c2c1sc(N1CCOCC1)c2C#Cc1ccccc1 (single isomer, unassigned) [Compound 137, 4-(4-chlorophenyl)-2-(morpholin-4-yl)-3-(phenylethynyl)-5,6-dihydrothieno[2,3-c]pyridin-7(4H)-one] | 16.1% | 80.8% | – | – | –
6 | C=Cc1c(N2CCOCC2)sc2c1C(c1ccc(Cl)cc1)CNC2=O (single isomer, unassigned) [Compound 143, 4-(4-chlorophenyl)-2-(morpholin-4-yl)-3-vinyl-5,6-dihydrothieno[2,3-c]pyridin-7(4H)-one] | 10% | 82.5% | – | – | –
7 | O=C1NCC(c2ccc(Cl)cc2)c2c1sc(N1CCOCC1)c2CO (single isomer, unassigned) [Compound 178, 4-(4-chlorophenyl)-3-(hydroxymethyl)-2-(morpholin-4-yl)-5,6-dihydrothieno[2,3-c]pyridin-7(4H)-one] | 4.71% | 40.2% | – | – | –
8 | O=C1NCC(c2ccc(Cl)cc2)c2c1sc(N1CCOCC1)c2Br (single isomer, unassigned) [Compound 181, 3-bromo-4-(4-chlorophenyl)-2-(morpholin-4-yl)-5,6-dihydrothieno[2,3-c]pyridin-7(4H)-one] | 8.59% | 69.5% | – | – | –
9 | O=Cc1c(N2CCOCC2)sc2c1C(c1ccc(Cl)cc1)CNC2=O (single isomer, unassigned) [Compound 193, 4-(4-chlorophenyl)-2-(morpholin-4-yl)-7-oxo-4,5,6,7-tetrahydrothieno[2,3-c]pyridine-3-carbaldehyde] | 11.1% | 79.1% | – | – | –
10 | CC1(C)CC(=O)c2sc(-c3ccncc3)cc2C1(O)c1ccc(Cl)cc1 (stereo not shown) [Compound 5, 4-(4-chlorophenyl)-4-hydroxy-5,5-dimethyl-2-pyridin-4-yl-5,6-dihydro-1-benzothiophen-7(4H)-one] | -3.8% | 32.8% | – | – | > 1000 nM
11 | O=C1OC2(CCC(=O)c3sc(-c4ccncc4)cc32)c2ccc(Cl)cc21 (stereo not shown) [Compound 14, 5-chloro-2′-pyridin-4-yl-5′,6′-dihydro-3H,7′H-spiro[2-benzofuran-1,4′-[1]benzothiophene]-3,7′-dione] | 8.7% | 31.9% | – | – | > 1000 nM
12 | CC(=O)Nc1cc(-c2cc3c(s2)C(=O)CC3c2ccc(Cl)cc2)ccn1 (stereo not shown) [Compound 16, N-(4-(4-(4-chlorophenyl)-6-oxo-5,6-dihydro-4H-cyclopenta[b]thiophen-2-yl)pyridin-2-yl)acetamide] | 24.5% | 54.5% | – | – | 100 to 1000 nM
13 | N#Cc1c(N2CCOCC2)sc2c1C(c1ccc(Cl)c(Cl)c1)CCNC2=O (stereo not shown) [Compound 116] | – | – | 36.43% | 66.61% | –
14 | O=C1N[C@@H](CO)CC(c2ccc3ccccc3c2)c2nc(N3CCOCC3)sc21 (stereo partly shown) [Compound 120] | – | – | 12.90% | 44.05% | –
15 | CNC(=O)[C@@H]1NC(=O)c2sc(C3=CCOCC3)cc2[C@H]1c1ccc(Cl)cc1 [Compound 121] | – | – | 40.77% | 104.98% | –
16 | O=C1NCC(c2ccc(Cl)cc2)c2c1sc(N1CCOCC1)c2C#Cc1cccnc1 (stereo not shown) [Compound 122] | 97.8% | 128% | – | – | –
17 | CN(C)CC#Cc1c(N2CCOCC2)sc2c1C(c1ccc(Cl)cc1)CNC2=O (stereo not shown) [Compound 130] | 58.1% | 116% | – | – | –
18 | O=C1NCCC(c2ccc3ccccc3c2)c2nc(N3CCOCC3)sc21 (stereo not shown) [Compound 131] | – | – | 9.87% | 85.03% | –
19 | CNC(=O)[C@@H]1NC(=O)c2sc(N3CCOCC3)cc2[C@H]1c1ccc(Cl)c(Cl)c1 [Compound 132] | 54% | 115% | – | – | –
20 | N#Cc1c(N2CCOCC2)sc2c1C(c1ccc3ccccc3c1)CNC2=O (stereo not shown) [Compound 135, 2-(morpholin-4-yl)-4-(2-naphthyl)-7-oxo-4,5,6,7-tetrahydrothieno[2,3-c]pyridine-3-carbonitrile] | 89.8% | 121% | – | – | –
21 | COC(=O)C1C(=O)c2sc(N3CCOCC3)cc2C1c1ccc(Cl)c(Cl)c1 (stereo not shown) [Compound 139, methyl 4-(3,4-dichlorophenyl)-2-(morpholin-4-yl)-6-oxo-5,6-dihydro-4H-cyclopenta[b]thiophene-5-carboxylate] | 14.4% | 95.6% | – | – | –
22 | C=CCC1(C(=O)OC)NC(=O)c2sc(N3CCOCC3)cc2C1c1ccc(Cl)c(Cl)c1 (stereo not shown) [Compound 154, methyl 5-allyl-4-(3,4-dichlorophenyl)-2-(morpholin-4-yl)-7-oxo-4,5,6,7-tetrahydrothieno[2,3-c]pyridine-5-carboxylate] | 10.9% | 75.5% | – | – | –
23 | CNC(=O)[C@H]1NC(=O)c2sc(N3CCOCC3)cc2[C@H]1c1ccc(Cl)cc1 [Compound 157] | 30.1% | 111% | – | – | –
24 | N#Cc1c(N2CCOCC2)sc2c1C(c1ccc(Cl)c(Cl)c1)CNC2=O (stereo not shown) [Compound 159] | 67.2% | 118% | – | – | –
25 | CNC(=O)[C@@H]1NC(=O)c2sc(-c3ccncc3)cc2[C@H]1c1ccc(Cl)cc1 [Compound 160] | – | – | 11.18% | 76.80% | –
26 | O=C1NCCC(c2ccc3ccncc3c2)c2nc(N3CCOCC3)sc21 (stereo not shown) [Compound 165] | 13.3% | 109% | – | – | –
27 | C=CCN1C(=O)c2sc(N3CCOCC3)cc2C(c2ccc(Cl)c(Cl)c2)C1C(=O)OC (stereo not shown) [Compound 166, methyl 6-allyl-4-(3,4-dichlorophenyl)-2-(morpholin-4-yl)-7-oxo-4,5,6,7-tetrahydrothieno[2,3-c]pyridine-5-carboxylate] | 7.59% | 69.2% | – | – | –
28 | NC(=O)c1cc(C2CCNC(=O)c3sc(N4CCOCC4)nc32)ccc1Cl (stereo not shown) [Compound 167] | 5.27% | 81.2% | – | – | –
29 | CNC(=O)c1[nH]c(=O)c2sc(N3CCOCC3)cc2c1-c1ccc(Cl)cc1 [Compound 168] | 74.5% | 117% | – | – | –
30 | O=C1OC2(CCNC(=O)c3sc(N4CCOCC4)nc32)c2ccc(Cl)cc21 (stereo not shown) [Compound 172, 5-chloro-2′-(morpholin-4-yl)-6′,7′-dihydro-3H-spiro[2-benzofuran-1,8′-[1,3]thiazolo[5,4-c]azepine]-3,4′(5′H)-dione] | 16.1% | 49.3% | – | – | –
